# US6503524B1, “Delivery of a skin health benefit agent to a treated substrate for transfer to skin” (Kimberly-Clark Worldwide, Inc., priority 2000, dated 2003)
# Like-named read-outs stand apart in the source and are kept apart here.
# How the values were obtained:
# [1] = test system: proteolytic activity of infant urine; conditions: zinc sulfate heptahydrate 0-50 mM; FIG. 8
# Protocol: The proteolytic activity of infant urine was measured using fluorescently labeled casein.
# Two (2) infant urine (100 μL) samples were added to wells of a 96 white plate (Dynex) containing 80 μL of 12.5 μg/ml solution of a fluorescent dye-labeled casein substrate (EnzChek Protease Assay Kit (E-6639)) in 100 mM Tris-HCl, pH 8.0, and allowed to incubate for 60 minutes at 37° C. […] Reaction of the infant urine with the casein substrate cleaved the fluorescent dye from the substrate. RFUs were collected using the Fluoroskan Ascent System with excitation and emission filters of 485 and 538 nm, respectively. Data were collected each minute for 60 minutes at 37° C. and rates (RFU/min) from 30-50 minutes were calculated for each zinc concentration. Using the uninhibited wells as 100% protease activity, percent of urine proteolytic activity remaining was determined for each concentration of zinc inhibitor (Inhibited Rate/Uninhibited rate* 100).
# [2] = test system: proteolytic activity of a fecal extract; conditions: zinc sulfate heptahydrate 0-1 mM; FIG. 7
# Protocol: The supernatant was filtered through 0.22 micron cellulose acetate filters and stored at −80° C. until use.
# [3] = test system: EpiDerm™ 201 synthetic skin (keratinocytes), interleukin-1 alpha release
# From the text: The synthetic skin, EpiDerm™ 201 (MatTek Corporation, Ashland, Mass. contains keratinocytes that release interleukin-1 alpha (IL-1 alpha) when subjected to proteases in the fecal extract. When the IL-1 alpha was released, it diffused from the skin into the fluid below the EpiDerm™. Samples of this fluid were taken and analyzed for the presence of the IL-1 alpha. Higher levels of IL-1 alpha was indicative of greater skin irritation.
# Prior to application onto the EpiDerm™, the fecal extract (10.4 μL) was pre-incubated for 30 minutes at room temperature with 250 mM zinc sulfate heptahydrate in water (2.6 μL). Water only and fecal extract only samples served as controls. After application of the samples to the EpiDerm™, 25 μL aliquots were removed from the underlying media at 8, 12, and 24 hours to test for the presence of the IL-1 alpha. The aliquots were directly added to a 1.5 mL micro-centrifuge tube containing 225 μL of filtered-sterilized 20 mM tris-HCl, pH 8.0, 1% BSA buffer and stored at −80° C. After all samples were collected, IL-1 alpha levels were quantified using the R&D Systems Interleukin-1 alpha Quantikine Kit (R&D Systems, Minneapolis, Minn.
# [4] = not given; remark: listed apart in the source
# [5] = 1.0 mM zinc sulfate heptahydrate
# [6] = 2.5 mM zinc sulfate heptahydrate
# [7] = 5.0 mM zinc sulfate heptahydrate
# [8] = 10.0 mM zinc sulfate heptahydrate
# [9] = 20.0 mM zinc sulfate heptahydrate
# [10] = .1 mM zinc sulfate heptahydrate
# [11] = increased concentration of zinc sulfate heptahydrate (Table 1)
smiles,measurement,setting,value
O.O.O.O.O.O.O.O=S(=O)([O-])[O-].[Zn+2] [zinc sulfate heptahydrate],inhibition of hydrolysis of casein by infant urine (percent of urine proteolytic activity remaining),[1],effectively inhibited the hydrolysis of casein by infant urine in a dose-dependent manner
same,"pH, Fecal Extract Example B",[5],6.5
same,"pH, Fecal Extract Example B",[6],6.0-6.5
same,"pH, Fecal Extract Example B",[7],6.0
same,"pH, Fecal Extract Example B",[8],5.5
same,"pH, Fecal Extract Example B",[9],5.5
same,"pH, Fecal Extract Example B",[10],6.5
same,reduction of pH of the fecal extract sample,[11],1 pH unit
same,inhibition of hydrolysis of casein by the fecal extract (percent of fecal proteolytic activity remaining),[2],effectively inhibited the hydrolysis of casein by the fecal extract in a dose-dependent manner
same,proteolytic activity of fecal extract on synthetic skin (IL-1 alpha release),"[3]; 0, 25, 50, 125 and 250 mM zinc sulfate heptahydrate, FIG. 10",effectively inhibits the proteolytic activity of fecal extract in a dose-dependent manner
same,interleukin-1 alpha released into the underlying media,"[3]; FE+zinc (250 mM, 2.6 μL) relative to FE+water, 8, 12 and 24 hours, FIG. 9",reduced the amount of interleukin-1 alpha released
same,"pH, Infant Urine Example F",[4]; [5],8.0
same,"pH, Infant Urine Example G",[4]; [5],7.0
same,"pH, Infant Urine Example H",[4]; [5],7.5
same,"pH, Infant Urine Example F",[4]; [6],7.5-8.0
same,"pH, Infant Urine Example G",[4]; [6],6.5
same,"pH, Infant Urine Example H",[4]; [6],7.0-7.5
same,"pH, Infant Urine Example F",[4]; [7],7.5
same,"pH, Infant Urine Example G",[4]; [7],5.5
same,"pH, Infant Urine Example H",[4]; [7],7.0
same,"pH, Infant Urine Example F",[4]; [8],7.0
same,"pH, Infant Urine Example G",[4]; [8],5.0
same,"pH, Infant Urine Example H",[4]; [8],6.5
same,"pH, Infant Urine Example F",[4]; [9],7.0
same,"pH, Infant Urine Example G",[4]; [9],5.0
same,"pH, Infant Urine Example H",[4]; [9],6.5
same,"pH, Infant Urine Example F",[4]; [10],8.5
same,"pH, Infant Urine Example G",[4]; [10],7.0
same,"pH, Infant Urine Example H",[4]; [10],8.0
same,reduction of pH of the infant urine samples,[4]; [11],1.5-2.0 pH units
